# Target: T1, crosslinked smooth muscle actomyosin (chicken gizzard smooth muscle myosin subfragment-1 crosslinked to cardiac or skeletal actin) (Gallus gallus, UniProt P10587)
# T1 construct: chicken gizzard smooth muscle myosin subfragment-1; from tissue; host or cells: chicken gizzard
# Experiment: Lead optimization pyruvate kinase/horseradish peroxidase/pyruvate oxidase-coupled ATPase assay (compound dose response)
# Assay type: biochemical
# Conditions: read-out: IC50 Arithmetic Mean
# Method: Screening assays were performed using a pyruvate kinase and lactate dehydrogenase-coupled ATPase assay containing the following reagents: Potassium PIPES (50 mM), MgCl2 (3 mM), KCl (100 mM), ATP (0.15 mM), DTT (1 mM), BSA (0.1 mg/ml), NADH (0.5 mM), PEP (1.5 mM), pyruvate kinase (4 U/ml), lactate dehydrogenase (8 U/ml), and antifoam (50 ppm) (concentrations expressed are final assay concentrations). The pH was adjusted to 6.80 at 22° C. by addition of potassium hydroxide. Lead optimization assays were performed with a more sensitive pyruvate kinase/horseradish peroxidase/pyruvate oxidase-coupled ATPase assay containing the following reagents: Potassium PIPES (12 mM), MgCl2 (2 mM), KCl (100 mM), ATP (0.15 mM), BSA (0.05 mg/ml), potassium phosphate (2 mM), amplex red (0.1 mM), PEP (0.1 mM), pyruvate kinase (4 U/ml), horseradish peroxidase (0.5 U/ml), pyruvate oxidase (0.5 U/ml), and antifoam (50 ppm) (concentrations expressed are final assay concentrations). The pH was adjusted to 7.00 at 22° C. by addition of potassium hydroxide.
# The protein components specific to this assay are chicken gizzard smooth muscle myosin subfragment-1 that has been chemically crosslinked to either cardiac or skeletal actin using an excess of 1-Ethyl-3-[3-dimethylaminopropyl]carbodiimide hydrochloride and N-hydroxysuccinimide. The exact concentration of the crosslinked smooth muscle myosin in the assay is determined empirically, by titration to achieve a desired rate of ATP hydrolysis. The concentration varies between protein preparations due to variations in the fraction of active molecules in each preparation.
# Compound dose response assays are performed by first preparing a dilution series of test compound, each with an assay mixture containing potassium PIPES, MgCl2, KCl, ATP, BSA, potassium phosphate, amplex red, PEP, crosslinked smooth muscle actomyosin (subfragment-1), antifoam, and water. The assay is started by adding an equal volume of solution containing potassium Pipes, MgCl2, KCl, BSA, potassium phosphate, pyruvate kinase, horseradish peroxidase, pyruvate oxidase, antifoam, and water. ATP hydrolysis is monitored by measuring the fluorescence of amplex red (excitation at 480 nm, emission at 615 nm). The resulting dose response curve is fit by the 4 parameter equation y=Bottom+((Top-Bottom)/(1+((IC50/X)^Hill))). The IC50 is defined as the concentration at which ATPase activity is midway between the top and bottom of the dose response curve.
row,IC50,SMILES
1,0.526 µM,CCc1ccc(NC(=O)OCC2(C(=O)NCc3ccccc3Cl)CCN(C(=O)CN)C2)cc1 (centres unmarked) [(1-(2-aminoacetyl)-3-{[N-(4-ethylphenyl)carbamoyloxy]methyl}pyrrolidin-3-yl)-N-[(2-chlorophenyl)methyl]carboxamide]
2,3.21 µM,CCc1ccc(NC(=O)OCC2(C(=O)NCc3ccccc3Cl)CCN(C(=O)OC(C)(C)C)CC2)cc1 [tert-butyl 4-{N-[(2-chlorophenyl)methyl]carbamoyl}-4-{[N-(4-ethylphenyl)carbamoyloxy]methyl}piperidinecarboxylate]
3,0.355 µM,CCc1ccc(NC(=O)OCCN(CCCCO)C(=O)NCc2ccccc2Cl)cc1 [{[(2-chlorophenyl)methyl]amino}-N-{2-[N-(4-ethylphenyl)carbamoyloxy]ethyl}-N-(4-hydroxybutyl) carboxamide]
4,0.486 µM,CCc1ccc(NC(=O)OCC2(C(=O)NCc3ccccc3Cl)CCN(C(=O)COC)CC2)cc1 [N-[(2-chlorophenyl)methyl](4-{[N-(4-ethylphenyl)carbamoyloxy]methyl}-1-(2-methoxyacetyl)(4-piperidyl))carboxamide]
5,1.16 µM,CCc1ccc(NC(=O)OCC2(C(=O)NCc3ccccc3Cl)CCN(CCN)CC2)cc1 [(1-(2-aminoethyl)-4-{[N-(4-ethylphenyl)carbamoyloxy]methyl}(4-piperidyl))-N-[(2-chlorophenyl)methyl]carboxamide]
6,13.7 µM,CCc1ccc(NC(=O)OCC(NC(C)=O)C(=O)NCc2ccccc2Cl)cc1 (centres unmarked) [2-(acetylamino)-N-[(2-chlorophenyl)methyl]-3-[N-(4-ethylphenyl)carbamoyloxy]propanamide]
7,3.99 µM,CCc1ccc(NC(=O)OCC(C)(NC(=O)CN)C(=O)NCc2ccccc2Cl)cc1 (centres unmarked) [2-(2-aminoacetylamino)-N-[(2-chlorophenyl)methyl]-3-[N-(4-ethylphenyl)carbamoyloxy]-2-methylpropanamide]
8,5.86 µM,CCc1ccc(NC(=O)OCCN(CCN(C)C(=O)CN)C(=O)NCc2ccccc2Cl)cc1 [2-amino-N-[2-({[(2-chlorophenyl)methyl]amino}-N-{2-[N-(4-ethylphenyl)carbamoyloxy]ethyl}carbonylamino)ethyl]-N-methylacetamide]
9,6.07 µM,CCc1ccc(NC(=O)OCCCCN(C)C(=O)NCc2ccccc2Cl)cc1 [{[(2-chlorophenyl)methyl]amino}-N-{4-[N-(4-ethylphenyl)carbamoyloxy]butyl}-N-methylcarboxamide]
10,1.67 µM,CCc1ccc(NC(=O)OC[C@H](C)N(CC(=O)O)C(=O)NCc2ccccc2Cl)cc1 [2-(N-{(1S)-2-[N-(4-ethylphenyl)carbamoyloxy]-isopropyl}{[(2-chlorophenyl)methyl]amino}carbonylamino)acetic acid]
11,3.05 µM,CCc1ccc(NC(=O)OCC2(C(=O)NCc3ccccc3Cl)CC2)cc1 [N-[(2-chlorophenyl)methyl]({[N-(4-ethylphenyl)carbamoyloxy]methyl}cyclopropyl)carboxamide]
12,2.83 µM,CCc1ccc(NC(=O)OCCN(CCN)C(=O)NCc2ccccc2Cl)cc1 [N-(2-aminoethyl){[(2-chlorophenyl)methyl]amino}-N-{2-[N-(4-ethylphenyl)carbamoyloxy]ethyl}carboxamide]
13,0.346 µM,CCc1ccc(NC(=O)OCCN(CCCCN)C(=O)NCc2ccccc2Cl)cc1 [[2-(N-(4-aminobutyl){[(2-chlorophenyl)methyl]amino}carbonylamino)ethoxy]-N-(4-ethylphenyl)carboxamide]
14,0.168 µM,CCc1ccc(NC(=O)OCC2(C(=O)NCc3ccccc3Br)CCN(C(=O)CNC)CC2)cc1 [[(4-{N-[(2-bromophenyl)methyl]carbamoyl}-1-[2-(methylamino)acetyl](4-piperidyl))methoxy]-N-(4-ethylphenyl)carboxamide]
15,13.6 µM,CCc1ccc(NC(=O)NC(C)(C)C(=O)NCc2ccccc2Cl)cc1 [N-[(2-chlorophenyl)methyl]-2-{[(4-ethylphenyl)amino]carbonylamino}-2-methylpropanamide]
16,0.248 µM,CN(CCOC(=O)Nc1ccc(-c2ccccc2)cc1)C(=O)NCc1ccccc1Cl [{[(2-chlorophenyl)methyl]amino}-N-methyl-N-{2-[N-(4-phenylphenyl)carbamoyloxy]ethyl}carboxamide]
17,0.059 µM,"CCc1ccc(NC(=O)OCCN(C)C(=O)NCc2cccc(Cl)c2Cl)cc1 [{[(2,3-dichlorophenyl)methyl]amino}-N-{2-[N-(4-ethylphenyl)carbamoyloxy]ethyl}-N-methylcarboxamide]"
18,0.951 µM,CCc1ccc(NC(=O)OCC2(C(=O)NCc3ccccc3CC)CCN(C(=O)CN)CC2)cc1 [[(1-(2-aminoacetyl)-4-{N-[(2-ethylphenyl)methyl]carbamoyl}(4-piperidyl))methoxy]-N-(4-ethylphenyl)carboxamide]
19,6.81 µM,CCc1ccc(NC(=O)OCCC(N)C(=O)NCc2ccccc2Cl)cc1 (centres unmarked) [2-amino-N-[(2-chlorophenyl)methyl]-4-[N-(4-ethylphenyl)carbamoyloxy]butanamide]
20,2.38 µM,CCc1ccc(NC(=O)OCC2CN(C(=O)CN)CCN2C(=O)NCc2ccccc2Cl)cc1 (centres unmarked) [(4-(2-aminoacetyl)-2-{[N-(4-ethylphenyl)carbamoyloxy]methyl}piperazinyl)-N-[(2-chlorophenyl)methyl]carboxamide]
21,0.12 µM,CCc1ccc(NC(=O)OCC2(C(=O)NCc3ccccc3Cl)CCN(C(=O)C(O)CN)CC2)cc1 (centres unmarked) [(1-(3-amino-2-hydroxypropanoyl)-4-{[N-(4-ethylphenyl)carbamoyloxy]methyl}(4-piperidyl))-N-[(2-chlorophenyl)methyl]carboxamide]
22,1.49 µM,"CCc1ccc(NC(=O)OCC2(C(=O)NCc3ccccc3Cl)CCN(C(=O)C(N)CCCN)CC2)cc1 (centres unmarked) [(1-(2,5-diaminopentanoyl)-4-{[N-(4-ethylphenyl)carbamoyloxy]methyl}(4-piperidyl))-N-[(2-chlorophenyl)methyl]carboxamide]"
23,0.797 µM,CCc1ccc(NC(=O)OCC2(C(=O)NCc3ccccc3Cl)CCN(C(=O)C(N)CC#N)CC2)cc1 (centres unmarked) [(1-(2-amino-3-cyanopropanoyl)-4-{[N-(4-ethylphenyl)carbamoyloxy]methyl}(4-piperidyl))-N-[(2-chlorophenyl)methyl]carboxamide]
24,18.7 µM,CCc1ccc(NC(=O)N(C)CC2(C(=O)NCc3ccccc3Cl)CCN(C(=O)CO)CC2)cc1 [N-[(2-chlorophenyl)methyl][4-({[(4-ethylphenyl)amino]-N-methylcarbonylamino}methyl)-1-(2-hydroxyacetyl)(4-piperidyl)]carboxamide]

row,SMILES,IC50
1,CCc1ccc(NC(=O)OCC2(C(=O)NCc3ccccc3OC)CCN(C(=O)CNC(=O)OC(C)(C)C)CC2)cc1 [(1-{2-[(tert-butoxy)carbonylamino]acetyl}-4-{[N-(4-ethylphenyl)carbamoyloxy]methyl}(4-piperidyl))-N-[(2-methoxyphenyl)methyl]carboxamide],11.3 µM
2,CCc1ccc(NC(=O)OCC2(C(=O)NCc3ccccc3Cl)CCN(C(=O)C(C)N(C)C(=O)OC(C)(C)C)CC2)cc1 (centres unmarked) [(tert-butoxy)-N-[2-(4-{N-[(2-chlorophenyl)methyl]carbamoyl}-4-{[N-(4-ethylphenyl)carbamoyloxy]methyl}piperidyl)-1-methyl-2-oxoethyl]-N-methylcarboxamide],6.18 µM
3,CCc1ccc(NC(=O)OCC2(C(=O)NCc3ccccc3F)CCN(C(=O)CNC(=O)OC(C)(C)C)CC2)cc1 [(tert-butoxy)-N-[2-(4-{[N-(4-ethylphenyl)carbamoyloxy]methyl}-4-{N-[(2-fluorophenyl)methyl]carbamoyl}piperidyl)-2-oxoethyl]carboxamide],3.77 µM
4,CCc1ccc(NC(=O)OCC2(C(=O)NCc3ccccc3Cl)CCCN(C(=O)[C@H](CO)NC(=O)OC(C)(C)C)C2)cc1 (stereo partly drawn) [N-[(1S)-2-(3-{N-[(2-chlorophenyl)methyl]carbamoyl}-3-{[N-(4-ethylphenyl)carbamoyloxy]methyl}piperidyl)-1-(hydroxymethyl)-2-oxoethyl](tert-butoxy)carboxamide],9.09 µM
5,CCc1ccc(NC(=O)OCC2(C(=O)NCc3ccccc3Cl)CCN(C(=O)[C@H](CO)NC(=O)OC(C)(C)C)CC2)cc1 [N-[(1S)-2-(4-{N-[(2-chlorophenyl)methyl]carbamoyl}-4-{[N-(4-ethylphenyl)carbamoyloxy]methyl}piperidyl)-1-(hydroxymethyl)-2-oxoethyl](tert-butoxy)carboxamide],0.416 µM
